Experimental data reported in patent publication EP0200024B1, “3-Cyano-pyridines, process for their preparation and their pharmaceutical use” (ARZNEIMITTELWERK DRESDEN GmbH, priority 1985, dated 1986).
Like-named read-outs stand apart in the source and are kept apart here. Values belong to the compound of their own block, whether it stands above or below them.

How the values were obtained:
[1] = test system: Isolierter, spontanaktiver Vorhof des Meerschweinchens; assay: Isolated, spontaneously active atrium (inotropy and frequency); set-up: species or system Meerschweinchen; settings: for chronotrope Wirkung / positiv inotrope Wirkung: result in words
Method: Für die Versuche wurden männliche Meerschweinchen mit einer Körpermasse von 400-500 g verwendet. Am isolierten, spontanaktiven Vorhof erfolgte nach einer 60 Min. währenden Adaptationszeit der Organpräparate in 32 °C temperierter carbogen-durchperlter Tyrodelösung die Untersuchung der Beeinflussung von Inotropie und Frequenz unter Einwirkung der 3-Cyan-2-(heteroalkyl-1-hetero)-pyridine der Formel I. Eine Reihe von Verbindungen zeigte eine starke und dosisabhängige positiv inotrope Wirkung. Bei Verwendung einer Tyrodelösung nach A.A. Alousi et al. [Circ. Res. 45, 666 (1979)] zeigen beispielsweise die Verbindungen von Beispiel 1.2, 1.7, 1.27, 3.3, 3.4, 3.5, 4.1 bzw. 4.3 eine 30%ige Steigerung der Inotropie bei Konzentrationen von 5,6 · 10⁻⁵, 5,4 · 10⁻⁶, 5,0 · 10⁻⁵, 5,8 · 10⁻⁵, 9,1 · 10⁻⁵, 1,6 · 10⁻⁴, 3,5 · 10⁻⁵ und 5,4 · 10⁻⁵ mol/l. Die Verbindung von Beispiel 1.27 zeigt bei einer Konzentration von 5 · 10⁻⁵ mol/l eine Abnahme der Frequenz um 15 %. Die Verbindung von Beispiel 1.8 zeigt bei Verwendung einer Tyrodelösung mit der Zusammensetzung (mmol/l): NaCl 136,9; KCl 2,7; CaCl₂ 1,8; MgCl₂ 1,0; NaHCO₃ 11,9; NaH₂PO₄ 0,4; Glucose 16,5 eine 30%ige Steigerung der Inotropie bei einer Konzentration von 1,2 · 10⁻⁴ mol/l.

Narkotisierter Hund = assay: Anaesthetised dog i.v. (left ventricular pressure dp/dtmax, arterial pressure); format: in vivo, Bastardhunden; settings: for ED10 / ED50: Canis lupus familiaris, iv; for ED10: read-out: 10%ige Senkung des diastolischen Blutdruckes bei einer Dosis von; for ED50: read-out: 50%ige Steigerung des Kontraktilitätsparameters dp/dtmax bei einer Dosis von; for Steigerungen des Kontraktilitätsparameters dp/dtmax: result in words
Text: Die Untersuchungen wurden an Bastardhunden in Chloralose-Urethan-Narkose bei Prämedikation mit Morphinhydrochlorid unter spontaner Atmung durchgeführt. . Der linksventrikuläre Druck wurde mittels Tipmanometer und der arterielle Druck wurde über Herzkatheter via A. brachialis gemessen [vgl. K. Femmer et al., Pharmazie 30 642 (1975)]. Unter dem Einfluß der 3-Cyan-2-(heteroalkyl-1-hetero)-pyridine der Formel I wurden eine dosisabhängige beträchtliche. Steigerung der Kontraktionskraft des Herzens sowie teilweise eine signifikante Senkung des peripheren Gesamtwiderstandes beobachtet. So zeigen beispielsweise die Verbindungen von Beispiel 3.2, 4.1, 4.3 und 4.5 eine 50%ige Steigerung des Kontraktilitätsparameters dp/dtmax bei einer Dosis von 6,1 · 10⁻⁶, 1,4 · 10⁻⁶, 2,5 · 10⁻⁶ bzw. 2.0 · 10⁻⁶ mol/kg sowie eine 10%ige Senkung des diastolischen Blutdruckes als relevantes Maß einer Abnahme des peripheren Gesamtwiderstandes bei einer Dosis von 2,1 · 10⁻⁶, 1,6 · 10⁻⁶,1,6 · 10⁻⁶ bzw. 1,2 · 10⁻⁶ mol/kg. Die Verbindung von Beispiel 2.1 zeigt bei einer Dosis von 5 mg/kg eine Steigerung von dp/dtmax um 126 % Für die Verbindung von Beispiel 2.1 wurde bei einer Dosis von 5 mg/kg eine Senkung des diastolischen Blutdruckes um 37 % gefunden.

Langendorff-Herz = assay: Langendorff heart in vitro (isolated perfused, freely beating heart; inotropy, chronotropy, coronary flow); set-up: species or system Meerschweinchen; activation: dose or concentration left out as unconfirmed; settings: for activation at 10000 µM / activation: 0,1 ml of a 10⁻² molar stock solution into the aorta; for activation at 10000 µM: read-out: Erhöhung der Inotropie; for activation: read-out: Erhöhung des Koronardurchflusses; for EC30: molarity of solution, 0,1 ml bolus into aortic stump, giving 30 % increase of inotropy, read-out: Erhöhung der Inotropie um 30 % bei Applikation von je 0,1 ml einer ... molaren Lösung; for EC100: molarity of solution, 0,1 ml bolus, giving 100 % increase of coronary flow, read-out: Erhöhung des Koronardurchflusses um 100 % bei Applikation von je 0,1 ml einer ... molaren Lösung; for positiv chronotrope Wirkung / positiv inotrope Wirkung: result in words
Method: Für die Versuche wurden männliche Meerschweinchen mit einer, Körpermasse von 300-350 g eingesetzt. An isolierten, mit carbogenbegaster Tyrodelösung von 37 °C durchströmten, frei schlagenden Herzen, wurden unter konstantem Druck die Kontraktionskraft (Inotropie), die Frequenz (Chronotropie) und der Koronardurchfluß unter dem Einfluß der 3-Cyan-2-(heteroalkyl-1-hetero)-5-(pyrid-4-yl)-pyridine der Formel I untersucht. Dazu wurden jeweils 0,1 ml der entsprechend molaren Substanzlösungen als Bolus direkt in den Aortenstumpf appliziert. Die 3-Cyan-2-(heteraalkyl-1-hetera)-5-(pyrid-4-yl)-pyridine zeigten eine teilweise starke und konzentrationsabhängige positiv inotrope und koronardilatatorische Wirkung. Die positiv chronotrope Wirkung war deutlich geringer, ausgeprägt. Beispielsweise zeigen die Verbindungen der Beispiele 1.2, 1.6, 1.7 und 1.8 eine Erhöhung der Inotropie um 30 % bei Applikation von je 0,1 ml einer 3,0 · 10⁻³, 2,2 · 10⁻², 2,0 · 10⁻⁴ bzw. 1,0 · 10⁻³ molaren Lösung und eine Erhöhung des Koronardurchflusses um 100 % bei Applikation von je 0,1 ml einer 6,0 · 10⁻³, 6,5 · 10⁻², 1,1 · 10⁻² bzw. 1,3 · 10⁻² molaren Lösung. Die Verbindungen der Beispiele 2.2, 2.3 und 2.4 weisen bei Applikation von je 0,1 ml einer 10⁻² molaren Stammlösung in die Aorta eine Erhöhung der Inotropie um 51 %, 38 % und 31 % sowie eine Erhöhung des Koronardurchflusses um 59 %, 99 % bzw. 88 % auf.

Meerschweinchen = assay: Inhalative histamine bronchospasm, oral administration; format: in vivo; settings: Cavia porcellus, 1 h, 60 min before inhaled 0,1 % histamine, 10 animals per dose, read-out: ED₅₀-Werte (Schutz vor Histamin-Bronchialkonstriktionen)
Method: Eine, in einem Ultraschallverdampfer vernebelte 0,1 %ige Histaminlösung induziert an männlichen Meerschweinchen (Körpermasse 200-300 g) innerhalb von 2 bis 3 Min. typische Bronchialkonstriktionen. Durch orale Verabreichung geeigneter Dosen der 3-Cyan-2-(heteroalkyl-1-hetero)-pyridine der Formel I 60 Min. vor der inhalativen Histamingabe wurden die Tiere innerhalb einer festgelegten Expositionszeit vor den durch Histamin verursachten Bronchialkonstriktionen geschützt. Für die Derivate von Beispiel 1.2, 1.6, 1.7 und 1.8 ergeben sich z.B. aus je 10 Tieren pro Dosis ED₅₀-Werte von 4,3 · 10⁻⁴, 6,0 · 10⁻⁴, 3,3 · 10⁻⁴ sowie 2,5 · 10⁻⁴ mol/kg, was auf deutliche bronchodilatatorische bzw. antiallergische Wirkungen hinweist.

[2] = test system: Samenleiter von Meerschweinchen; assay: Noradrenaline antagonism in vitro (noradrenaline contraction of isolated vas deferens); settings: Cavia porcellus; compound given 1 min before submaximal noradrenaline concentration; read-out: ED₅₀-Werte (Hemmung der Noradrenalinkontraktion)
Method: Die in Warmblüterphosphattyrode präparierten Samenleiter von Meerschweinchen (ca. 400 g Körpermasse) wurden 60 Min. im Organbad adaptiert. Anschließend wurden die Kontraktionen unter Gabe von Noradrenalin isotonisch registriert. Die 3-Cyan-2-(heteroalkyl-1-hetero)-pyridine der Formel I wurden 1 Min vor den jeweils submaximal reagierenden Noradrenalinkonzentrationen in das Organbad appliziert. […] Für die Verbindungen von Beispiel 1.2, 1.6, 1.7 und 1.8 ergaben sich beispielsweise ED₅₀-Werte von 2,2 · 10⁻⁵, 1,6 · 10⁻⁴, 2,5 · 10⁻⁴ sowie 1,3 · 10⁻⁴ mol/l.

[3] = Tyrode solution according to A.A. Alousi et al., 32 °C, read-out: 30%ige Steigerung der Inotropie bei Konzentrationen von

Structure (SMILES): N#Cc1cc(-c2ccncc2)cnc1N1CCN(C(=O)c2ccco2)CC1 [Beispiel 1.27, 3-Cyan-2-[4-(furan-2-yl-carbonyl)-piperazino]-5-(pyrid-4-yl)-pyridin]
inhibition at 50 µM ([1]; Cavia porcellus, at a concentration of 5 · 10⁻⁵ mol/l, read-out: Abnahme der Frequenz): 15%
EC30 [1, 3]: 50 µM
chronotrope Wirkung [1]: negativ chronotroper Wirkung
positiv inotrope Wirkung [1]: gute positiv inotrope Wirkung

Structure (SMILES): CC(=O)OCCOc1ncc(-c2ccncc2)cc1C#N [Beispiel 4.3, 2-(2-Acetoxy-ethoxy)-3-cyan-5-(pyrid-4-yl)-pyridin]
ED10 (Narkotisierter Hund): 1.6 µmol/kg
ED50 (Narkotisierter Hund): 2.5 µmol/kg
Steigerungen des Kontraktilitätsparameters dp/dtmax (Narkotisierter Hund): dosisabhängige beträchtliche Steigerungen
EC30 [1, 3]: 54 µM
positiv inotrope Wirkung [1]: gute und dosisabhängige positiv inotrope Wirkung

Structure (SMILES): CC(O)COc1ncc(-c2ccncc2)cc1C#N (stereo not shown) [Beispiel 2.4, 3-Cyan-2-(2-hydroxy-propoxy)-5-(pyrid-4-yl)-pyridin]
activation at 10000 µM (Langendorff-Herz): 31%
activation (Langendorff-Herz): 88%

IC50 [2]: 130 µM
Structure (SMILES): N#Cc1cc(-c2ccncc2)cnc1NCCCO [Beispiel 1.8, 3-Cyan-2-(3-hydroxy-propylamino)-5-(pyrid-4-yl)-pyridin]
ED50 (Meerschweinchen): 250 µmol/kg
EC30 ([1]; Tyrode solution (mmol/l): NaCl 136,9, KCl 2,7, CaCl₂ 1,8, MgCl₂ 1,0, NaHCO₃ 11,9, NaH₂PO₄ 0,4, Glucose 16,5, read-out: 30%ige Steigerung der Inotropie bei einer Konzentration von): 120 µM
chronotrope Wirkung [1]: relative geringer positiv chronotroper Aktivität
positiv inotrope Wirkung [1]: ausgeprägte und dosisabhängige positiv inotrope Wirkung
EC30 (Langendorff-Herz): 1000 µM
EC100 (Langendorff-Herz): 13000 µM
positiv chronotrope Wirkung (Langendorff-Herz): relative geringer positiv chronotroper Aktivität
positiv inotrope Wirkung (Langendorff-Herz): ausgeprägte und dosisabhängige positiv inotrope Wirkung

Structure (SMILES): Cc1nc(NCC(C)O)c(C#N)cc1-c1ccncc1 (stereo not shown) [Beispiel 3.5, 3-Cyan-2-(2-hydroxy-propylamino)-6-methyl-5-(pyrid-4-yl)-pyridin]
EC30 [1, 3]: 160 µM

Structure (SMILES): Cc1nc(NCCCO)c(C#N)cc1-c1ccncc1 [Beispiel 3.4, 3-Cyan-2-(3-hydroxy-propylamino)-6-methyl-5-(pyrid-4-yl)-pyridin]
EC30 [1, 3]: 91 µM
positiv inotrope Wirkung [1]: gute und dosisabhängige positiv inotrope Wirkung

Structure (SMILES): COCCOc1ncc(-c2ccncc2)cc1C#N [Beispiel 2.1, 3-Cyan-2-(2-methoxy-ethoxy)-5-(pyrid-4-yl)-pyridin]
Senkung des diastolischen Blutdruckes (Narkotisierter Hund; dose 5 mg/kg): 37%
Steigerung von dp/dtmax (Narkotisierter Hund; dose 5 mg/kg): 126%

Structure (SMILES): COc1ccc(-c2cc(C#N)c(N3CCOCC3)nc2C)cc1OC [3-Cyan-5-(3,4-dimethoxy-phenyl)-6-methyl-2-morpholino-pyridin]
Steigerungen des Kontraktilitätsparameters dp/dtmax (Narkotisierter Hund): dosisabhängige beträchtliche Steigerungen

Structure (SMILES): N#Cc1cc(-c2ccncc2)cnc1OCCCO [Beispiel 2.3, 3-Cyan-2-(3-hydroxy-propoxy)-5-(pyrid-4-yl)-pyridin]
activation at 10000 µM (Langendorff-Herz): 38%
activation (Langendorff-Herz): 99%

Structure (SMILES): Cc1nc(NCCO)c(C#N)cc1-c1ccncc1 [Beispiel 3.3, 3-Cyan-2-(2-hydroxy-ethylamino)-6-methyl-5-(pyrid-4-yl)-pyridin]
EC30 [1, 3]: 58 µM
positiv inotrope Wirkung [1]: gute und dosisabhängige positiv inotrope Wirkung

Structure (SMILES): N#Cc1cc(-c2ccncc2)cnc1OCCO [Beispiel 2.2, 3-Cyan-2-(2-hydroxy-ethoxy-)-5-(pyrid-4-yl)-pyridin]
chronotrope Wirkung [1]: relative geringer positiv chronotroper Aktivität
positiv inotrope Wirkung [1]: ausgeprägte und dosisabhängige positiv inotrope Wirkung
activation at 10000 µM (Langendorff-Herz): 51%
activation (Langendorff-Herz): 59%
positiv chronotrope Wirkung (Langendorff-Herz): relative geringer positiv chronotroper Aktivität
positiv inotrope Wirkung (Langendorff-Herz): ausgeprägte und dosisabhängige positiv inotrope Wirkung

Structure (SMILES): Cc1nc(N2CCOCC2)c(C#N)cc1-c1ccncc1 [Beispiel 3.2, 3-Cyan-6-methyl-2-morpholino-5-(pyrid-4-yl)-pyridin]
ED10 (Narkotisierter Hund): 2.1 µmol/kg
ED50 (Narkotisierter Hund): 6.1 µmol/kg
Steigerungen des Kontraktilitätsparameters dp/dtmax (Narkotisierter Hund): dosisabhängige beträchtliche Steigerungen

Structure (SMILES): CC(=O)OCCNc1ncc(-c2ccncc2)cc1C#N [Beispiel 4.1, 2-(2-Acetoxy-ethylamino)-3-cyan-5-(pyrid-4-yl)-pyridin]
ED10 (Narkotisierter Hund): 1.6 µmol/kg
ED50 (Narkotisierter Hund): 1.4 µmol/kg
Steigerungen des Kontraktilitätsparameters dp/dtmax (Narkotisierter Hund): dosisabhängige beträchtliche Steigerungen
EC30 [1, 3]: 35 µM
positiv inotrope Wirkung [1]: gute und dosisabhängige positiv inotrope Wirkung

Structure (SMILES): Cc1nc(N2CCOCC2)c(C#N)cc1-c1ccccc1 [3-Cyan-6-methyl-2-morpholino-5-phenyl-pyridin]
Steigerungen des Kontraktilitätsparameters dp/dtmax (Narkotisierter Hund): dosisabhängige beträchtliche Steigerungen

IC50 [2]: 160 µM
Structure (SMILES): N#Cc1cc(-c2ccncc2)cnc1N(CCO)CCO [Beispiel 1.6, 2-[Bis-(2-hydroxy-ethyl)-amino]-3-cyan-5-(pyrid-4-yl)-pyridin]
ED50 (Meerschweinchen): 600 µmol/kg
EC30 (Langendorff-Herz): 22000 µM
EC100 (Langendorff-Herz): 65000 µM

Structure (SMILES): CCC(=O)OCCNc1ncc(-c2ccncc2)cc1C#N [Beispiel 4.5, 3-Cyan-2-(2-propionyloxy-ethylamino)-5-(pyrid-4-yl)-pyridin]
ED10 (Narkotisierter Hund): 1.2 µmol/kg
ED50 (Narkotisierter Hund): 2 µmol/kg
Steigerungen des Kontraktilitätsparameters dp/dtmax (Narkotisierter Hund): dosisabhängige beträchtliche Steigerungen
